The assay has as its target T1, ImcA (PA1851) (Pseudomonas aeruginosa, UniProt Q9I2P4).
T1 construct: full-length membrane protein (6TM L47-E231, GGDEF R241-A393), expressed in E. coli BL21(DE3), DDM-solubilised, Strep-Tactin purified, homodimer
Description: HPLC of c-di-GMP formation. In kind it is biochemical. The conditions noted are these: 200 µM GTP; 50 mM Tris-HCl pH 8.0, 150 mM NaCl, 0.025% DDM; 37 °C, 2 h; without IsmP.

SMILES strings stand for the structures.

T1 sequence (Q9I2P4 entry or part of it): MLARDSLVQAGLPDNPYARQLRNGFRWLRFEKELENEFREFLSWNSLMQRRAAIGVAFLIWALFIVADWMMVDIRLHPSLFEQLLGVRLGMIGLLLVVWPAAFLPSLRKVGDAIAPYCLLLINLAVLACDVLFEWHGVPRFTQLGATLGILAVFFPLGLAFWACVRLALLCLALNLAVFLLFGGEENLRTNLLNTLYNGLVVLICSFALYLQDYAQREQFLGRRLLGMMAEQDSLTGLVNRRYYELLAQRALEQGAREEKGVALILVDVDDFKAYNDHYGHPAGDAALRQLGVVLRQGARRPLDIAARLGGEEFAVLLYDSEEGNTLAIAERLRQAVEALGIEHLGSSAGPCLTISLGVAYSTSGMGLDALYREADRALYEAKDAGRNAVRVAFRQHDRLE

On to `Nc1nc2c(ncn2[C@@H]2O[C@H](COP(=O)(O)OP(=O)(O)OP(=O)(O)O)[C@@H](O)[C@H]2O)c(=O)[nH]1` [GTP], for which the “HPLC of c-di-GMP formation” value is reported as “GTP was absolutely converted to c-di-GMP when GTP was incubated with ImcA alone”.

(Values after publication PMC10904736, “A c-di-GMP signaling module controls responses to iron in Pseudomonas aeruginosa” (Nature Communications, 2024).)
